Measurements published in patent publication US7465753B2, “Glycoside-containing liposome” (Otsuka Pharmaceutical Co., Ltd., priority 2003, dated 2008).
Where two headings read alike, the source gives them in different places.

Columns and labels:
[1] = tested on: colon26 wild; assay: Cell proliferation inhibitory effect, MTT assay, colon26 wild; format: cell-based; conditions: glycoside employed alone, 37° C. for three days
Description: A cultured cancer cell line (colon26 wild) was inoculated into a 96-well plate (1×10^4 cells/100 μL/well), and subsequently a cholestanol glycoside (GlcNAcβ1,4GalChol, Fucα1,3GalChol, GalβChol, or Chol) or each type of the cholestanol glycoside liposomes formed in Example 1 was added to the 96-well plate, followed by incubation at 37° C. for three days. Thereafter, the MTT assay was performed, and the number of live cells was determined. The cell proliferation inhibition rate was obtained by use of the following formula. Cell proliferation inhibition rate(CPI rate)(%)=(1−OD of treated cells/OD of non-treated cells)×100

[2] = tested on: colon26 wild; conditions: glycoside alone; conventionally shown; cited from earlier work

## CC(C)CCC[C@@H](C)[C@H]1CC[C@H]2[C@@H]3CC[C@H]4C[C@@H](O[C@@H]5O[C@H](CO)[C@H](O)[C@H](O[C@@H]6O[C@@H](C)[C@@H](O)[C@@H](O)[C@@H]6O)[C@H]5O)CC[C@]4(C)[C@H]3CC[C@]12C [Fucα1,3GalChol, 3-β-cholestanyl 3-O-(α-L-fucopyranosyl)-β-D-galactopyranoside]
[1]
  cell proliferation inhibitory effect: scarcely exhibits cell proliferation inhibitory effect

## CC(=O)N[C@H]1[C@H](O[C@@H]2[C@H](O)[C@@H](O)[C@H](O[C@H]3CC[C@@]4(C)[C@@H](CC[C@@H]5[C@@H]4CC[C@]4(C)[C@@H]([C@H](C)CCCC(C)C)CC[C@@H]54)C3)O[C@@H]2CO)O[C@H](CO)[C@@H](O)[C@@H]1O [GlcNAcβ1,4GalChol, 3-β-cholestanyl 4-O-(2-acetamido-2-deoxy-β-D-glucopyranosyl)-β-D-galactopyranoside]
[2]
  cell proliferation inhibitory effect: has conventionally been shown to have cell proliferation inhibitory effect
